Results from patent publication US9458110B2, “Phenylpyrazole derivatives as potent ROCK1 and ROCK2 inhibitors” (BRISTOL-MYERS SQUIBB COMPANY, priority 2013, dated 2016).

Assays:
ROCK1 = ROCK1 (Homo sapiens (Human), UniProt Q13464); experiment: ROCK assay (Caliper LABCHIP peptide phosphorylation), ROCK1; type: biochemical; details: 5 μM ATP, 1.5 μM peptide substrate;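 note: Read-out is separation of phosphorylated from unphosphorylated peptide, with kinase activity inhibition computed at every concentration of a dose-response series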
ROCK1, sequence (Q13464 whole entry, species assumed): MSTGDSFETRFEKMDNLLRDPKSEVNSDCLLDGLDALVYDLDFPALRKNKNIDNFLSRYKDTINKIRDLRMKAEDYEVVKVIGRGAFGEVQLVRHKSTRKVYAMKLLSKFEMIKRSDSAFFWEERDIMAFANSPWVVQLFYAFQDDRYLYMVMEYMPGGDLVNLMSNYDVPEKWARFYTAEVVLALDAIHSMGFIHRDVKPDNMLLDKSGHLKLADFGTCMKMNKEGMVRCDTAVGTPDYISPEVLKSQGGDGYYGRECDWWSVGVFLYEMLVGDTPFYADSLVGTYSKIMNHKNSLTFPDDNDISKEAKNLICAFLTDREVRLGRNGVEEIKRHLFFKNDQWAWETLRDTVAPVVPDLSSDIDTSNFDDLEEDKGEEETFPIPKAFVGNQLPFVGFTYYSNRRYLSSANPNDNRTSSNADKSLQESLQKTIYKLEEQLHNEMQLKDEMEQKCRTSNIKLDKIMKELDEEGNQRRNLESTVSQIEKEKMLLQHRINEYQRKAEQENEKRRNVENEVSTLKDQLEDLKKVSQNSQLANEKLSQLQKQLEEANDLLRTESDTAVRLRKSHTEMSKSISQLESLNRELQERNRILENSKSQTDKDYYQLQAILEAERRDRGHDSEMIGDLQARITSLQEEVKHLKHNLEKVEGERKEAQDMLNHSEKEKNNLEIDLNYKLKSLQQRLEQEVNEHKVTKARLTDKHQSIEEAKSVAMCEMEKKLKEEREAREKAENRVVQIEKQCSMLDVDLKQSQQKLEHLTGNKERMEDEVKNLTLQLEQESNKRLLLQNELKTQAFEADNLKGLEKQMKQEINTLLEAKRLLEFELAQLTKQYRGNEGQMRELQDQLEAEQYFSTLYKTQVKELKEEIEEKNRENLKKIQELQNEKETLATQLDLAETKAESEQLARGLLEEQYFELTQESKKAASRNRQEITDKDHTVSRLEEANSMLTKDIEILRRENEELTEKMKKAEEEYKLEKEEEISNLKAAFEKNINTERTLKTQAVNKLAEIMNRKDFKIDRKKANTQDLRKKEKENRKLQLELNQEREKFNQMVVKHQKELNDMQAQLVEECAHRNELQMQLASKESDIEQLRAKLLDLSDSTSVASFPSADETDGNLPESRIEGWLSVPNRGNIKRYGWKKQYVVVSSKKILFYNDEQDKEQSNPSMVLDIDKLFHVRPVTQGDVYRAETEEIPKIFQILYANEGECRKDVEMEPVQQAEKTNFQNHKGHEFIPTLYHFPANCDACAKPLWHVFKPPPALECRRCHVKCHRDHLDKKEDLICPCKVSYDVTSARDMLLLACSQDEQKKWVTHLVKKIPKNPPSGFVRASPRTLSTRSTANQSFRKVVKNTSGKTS

ROCK2 = ROCK2 (Homo sapiens (Human), UniProt O75116); experiment: ROCK assay (Caliper LABCHIP peptide phosphorylation), ROCK2; type: biochemical; details: 5 μM ATP, 1.5 μM peptide substrate;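 note: reaction stopped with EDTA, then phosphorylated and unphosphorylated peptide resolved by microfluidic electrophoresis, kinase inhibition computed at each compound concentration in dose-response series, DMSO under 2%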
ROCK2, sequence (O75116 whole entry, species assumed): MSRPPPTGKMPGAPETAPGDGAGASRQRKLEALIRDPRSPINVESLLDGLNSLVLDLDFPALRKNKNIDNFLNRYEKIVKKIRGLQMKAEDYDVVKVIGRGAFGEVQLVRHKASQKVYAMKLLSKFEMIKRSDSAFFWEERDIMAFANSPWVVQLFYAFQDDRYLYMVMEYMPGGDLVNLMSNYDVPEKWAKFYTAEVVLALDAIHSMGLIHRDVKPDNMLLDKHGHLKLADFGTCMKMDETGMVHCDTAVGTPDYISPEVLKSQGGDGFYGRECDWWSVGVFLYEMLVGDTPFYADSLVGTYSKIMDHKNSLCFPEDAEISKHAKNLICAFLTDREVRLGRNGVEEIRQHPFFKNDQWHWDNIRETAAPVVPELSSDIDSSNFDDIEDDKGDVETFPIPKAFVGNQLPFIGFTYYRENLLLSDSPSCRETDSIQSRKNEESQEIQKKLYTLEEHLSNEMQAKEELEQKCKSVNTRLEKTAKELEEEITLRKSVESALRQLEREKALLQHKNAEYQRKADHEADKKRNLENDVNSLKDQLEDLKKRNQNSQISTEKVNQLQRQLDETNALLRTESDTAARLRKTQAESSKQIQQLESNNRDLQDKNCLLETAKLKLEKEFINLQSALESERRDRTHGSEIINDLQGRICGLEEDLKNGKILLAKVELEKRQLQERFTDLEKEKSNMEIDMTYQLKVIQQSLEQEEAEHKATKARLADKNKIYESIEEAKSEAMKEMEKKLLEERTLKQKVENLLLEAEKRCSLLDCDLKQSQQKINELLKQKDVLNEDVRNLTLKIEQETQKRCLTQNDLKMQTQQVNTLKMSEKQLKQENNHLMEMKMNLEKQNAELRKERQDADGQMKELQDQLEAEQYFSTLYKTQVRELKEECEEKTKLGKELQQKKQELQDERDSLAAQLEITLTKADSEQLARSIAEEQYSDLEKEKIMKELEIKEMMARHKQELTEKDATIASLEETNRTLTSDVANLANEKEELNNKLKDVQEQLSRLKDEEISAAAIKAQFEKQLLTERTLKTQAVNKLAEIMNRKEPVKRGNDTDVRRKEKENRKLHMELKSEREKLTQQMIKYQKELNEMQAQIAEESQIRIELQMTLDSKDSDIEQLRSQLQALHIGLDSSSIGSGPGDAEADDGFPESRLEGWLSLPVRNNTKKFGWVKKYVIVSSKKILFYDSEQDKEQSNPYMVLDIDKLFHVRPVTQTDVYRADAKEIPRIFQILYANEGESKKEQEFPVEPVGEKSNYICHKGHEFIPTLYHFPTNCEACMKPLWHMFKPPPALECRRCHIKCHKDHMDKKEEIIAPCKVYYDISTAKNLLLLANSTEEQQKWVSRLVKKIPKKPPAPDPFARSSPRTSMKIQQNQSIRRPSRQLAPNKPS

| Structure (SMILES) | IC50 (ROCK1) [nM] | IC50 (ROCK2) [nM] |
| --- | --- | --- |
| COc1cc(C(=O)NC(CO)c2ccccc2F)ccc1-c1cn[nH]c1 (stereo not drawn) [Example 166, N-[1-(2-fluorophenyl)-2-hydroxyethyl]-3-methoxy-4-(1H-pyrazol-4-yl)benzamide] | 7.22 | 2.17 |
| COc1cc(C(=O)NC(CO)c2ccccc2F)ccc1-c1cn[nH]c1 (stereo not drawn) [Example 167, N-[1-(2-fluorophenyl)-2-hydroxyethyl]-3-methoxy-4-(1H-pyrazol-4-yl)benzamide] | 56.5 | 16.7 |
| Cc1cc(C(=O)NC(C)c2cccc(O)n2)ccc1-c1cn[nH]c1 (stereo not drawn) [Example 168, N-[1-(6-hydroxypyridin-2-yl)ethyl]-3-methyl-4-(1H-pyrazol-4-yl)benzamide] | 130 | 46.7 |
| COc1cc(C(=O)NC(CCN(C)C)c2ccccc2)ccc1-c1cn[nH]c1 (stereo not drawn) [Example 169, N-[3-(dimethylamino)-1-phenylpropyl]-3-methoxy-4-(1H-pyrazol-4-yl)benzamide] | 4.7 | 1.93 |
| C=C[C@@H](NC(=O)c1ccc(-c2cn[nH]c2)c(OC)c1)c1c(F)cccc1F [Example 170, N-[(1R)-1-(2,6-difluorophenyl)prop-2-en-1-yl]-3-methoxy-4-(1H-pyrazol-4-yl)benzamide] | 17.5 | 10.5 |
| COc1cc(C(=O)N[C@@H](c2c(F)cccc2F)C(O)CO)ccc1-c1cn[nH]c1 (stereo partly drawn) [Example 175, N-[(1S)-1-(2,6-difluorophenyl)-2,3-dihydroxy-propyl]-3-methoxy-4-(1H-pyrazol-4-yl)benzamide] | 34.9 | 19.3 |
| COc1cc(C(=O)NC(CCN(C)C)c2ccccc2)ccc1-c1cn[nH]c1 (stereo not drawn) [Example 178, N-[3-(dimethylamino)-1-phenylpropyl]-3-methoxy-4-(1H-pyrazol-4-yl)benzamide] | 94.2 | 31.9 |
| COc1cc(C(=O)NC(CCN(C)C)c2ccccc2)ccc1-c1cn[nH]c1 (stereo not drawn) [Example 179, N-[3-(dimethylamino)-1-phenylpropyl]-3-methoxy-4-(1H-pyrazol-4-yl)benzamide] | 1.53 | 7.75 |
| CCc1ccccc1CNC(=O)c1ccc(-c2cn[nH]c2)c(OC)c1 [Example 180, N-[(2-ethylphenyl)methyl]-3-methoxy-4-(1H-pyrazol-4-yl)benzamide] | 36.4 | 15.3 |
| C[C@@H](NC(=O)c1ccc(-c2cn[nH]c2)c(O)c1)c1ccc(F)cc1 [Example 183, N-[(1R)-1-(4-fluorophenyl)ethyl]-3-hydroxy-4-(1H-pyrazol-4-yl)benzamide] | 2.22 | 7.68 |
| COc1cc(-c2c[nH]nc2C)ccc1C(=O)NCc1c(F)cccc1Cl [Example 184, N-[(2-chloro-6-fluorophenyl)methyl]-2-methoxy-4-(3-methyl-1H-pyrazol-4-yl)benzamide] | 14.2 | 101 |
| COc1cc(-c2cn[nH]c2)ccc1C(=O)NCc1c(F)cccc1Cl [Example 185, N-[(2-chloro-6-fluorophenyl)methyl]-2-methoxy-4-(1H-pyrazol-4-yl)benzamide] | 26.3 | 6.48 |
| C[C@@H](NC(=O)c1cc(F)c(-c2cn[nH]c2)cc1F)c1ccccc1 [Example 186, 2,5-difluoro-N-[(1R)-1-phenylethyl]-4-(1H-pyrazol-4-yl)benzamide] | 472 | 190 |
| COc1cc(C(=O)NC(Cc2ccccc2)C(C)=O)ccc1-c1cn[nH]c1 (stereo not drawn) [Example 187, 3-methoxy-N-(3-oxo-1-phenylbutan-2-yl)-4-(1H-pyrazol-4-yl)benzamide] | 23 | 14 |
| C[C@@H](NC(=O)c1ccc(-c2cn[nH]c2)c(S(C)(=O)=O)c1)c1ccccc1 [Example 188, 3-methanesulfonyl-N-[(1R)-1-phenylethyl]-4-(1H-pyrazol-4-yl)benzamide] | > 2000 | 208 |
| COc1cc(-c2c[nH]nc2C(F)(F)F)ccc1C(=O)NCc1c(F)cccc1Cl [Example 189, N-[(2-chloro-6-fluorophenyl)methyl]-2-methoxy-4-[3-(trifluoromethyl)-1H-pyrazol-4-yl]benzamide] | 39.4 | 42.5 |
| COc1cc(-c2cn[nH]c2)c(F)cc1C(=O)N[C@H](C)c1ccccc1 [Example 190, 5-fluoro-2-methoxy-N-[(1R)-1-phenylethyl]-4-(1H-pyrazol-4-yl)benzamide] | 37.1 | 16.7 |
| CCOc1cc(C(=O)N[C@H](C)c2ccc(F)cc2)ccc1-c1cn[nH]c1 [Example 191, 3-ethoxy-N-[(1R)-1-(4-fluorophenyl)ethyl]-4-(1H-pyrazol-4-yl)benzamide] | 205 | 74.6 |
| CCOc1cc(C(=O)N[C@H](CO)c2ccccc2)ccc1-c1cn[nH]c1 [Example 192, 3-ethoxy-N-[(1S)-2-hydroxy-1-phenylethyl]-4-(1H-pyrazol-4-yl)benzamide] | 50.8 | 11.4 |
| C[C@@H](NC(=O)c1ccc(-c2cn[nH]c2)c(C#N)c1)c1ccc(F)cc1 [Example 193, 3-cyano-N-[(1R)-1-(4-fluorophenyl)ethyl]-4-(1H-pyrazol-4-yl)benzamide] | 873 | 289 |

| Structure (SMILES) | IC50 (ROCK1) [nM] | IC50 (ROCK2) [nM] |
| --- | --- | --- |
| N#Cc1cc(C(=O)N[C@H](CO)c2ccccc2)ccc1-c1cn[nH]c1 [Example 194, 3-cyano-N-[(1S)-2-hydroxy-1-phenylethyl]-4-(1H-pyrazol-4-yl)benzamide] | 510 | 152 |
| CCOc1cc(C(=O)N[C@H](CO)c2c(F)cccc2F)ccc1-c1cn[nH]c1 [Example 195, N-[(1S)-1-(2,6-difluorophenyl)-2-hydroxyethyl]-3-ethoxy-4-(1H-pyrazol-4-yl)benzamide] | 82.7 | 16 |
| O=C(N[C@H](CO)c1c(F)cccc1F)c1ccc(-c2cn[nH]c2)c(OC(F)F)c1 [Example 196, 3-(difluoro-methoxy)-N-[(1S)-1-(2,6-difluorophenyl)-2-hydroxyethyl]-4-(1H-pyrazol-4-yl)benzamide] | 63.7 | 13.8 |
| Cc1cc(C(=O)N[C@H](CO)c2c(F)cccc2F)ccc1-c1cn[nH]c1 [Example 197, N-[(1S)-1-(2,6-difluorophenyl)-2-hydroxyethyl]-3-methyl-4-(1H-pyrazol-4-yl)benzamide] | 52.6 | 17.6 |
| N#Cc1cc(C(=O)N[C@H](CO)c2c(F)cccc2F)ccc1-c1cn[nH]c1 [Example 198, 3-cyano-N-[(1S)-1-(2,6-difluorophenyl)-2-hydroxyethyl]-4-(1H-pyrazol-4-yl)benzamide] | 397 | 140 |
| COc1c(-c2cn[nH]c2)ccc(C(=O)N[C@H](CO)c2c(F)cccc2F)c1F [Example 199, N-[(1S)-1-(2,6-difluorophenyl)-2-hydroxyethyl]-2-fluoro-3-methoxy-4-(1H-pyrazol-4-yl)benzamide] | 219 | 21.6 |
| O=C(N[C@H](CO)c1c(F)cccc1F)c1ccc(-c2cn[nH]c2)c(Cl)c1 [Example 200, 3-chloro-N-[(1S)-1-(2,6-difluorophenyl)-2-hydroxyethyl]-4-(1H-pyrazol-4-yl)benzamide] | 42.3 | 12.3 |
| COc1cc(-c2cn[nH]c2)ccc1C(=O)N[C@H](CO)c1c(F)cccc1F [Example 201, N-[(1S)-1-(2,6-difluorophenyl)-2-hydroxyethyl]-2-methoxy-4-(1H-pyrazol-4-yl)benzamide] | 362 | 11.5 |
| O=C(N[C@H](CO)c1c(F)cccc1F)c1ccc(-c2cn[nH]c2)c(C(F)(F)F)c1 [Example 202, N-[(1S)-1-(2,6-difluorophenyl)-2-hydroxyethyl]-4-(1H-pyrazol-4-yl)-3-(trifluoromethyl) benzamide] | 193 | 55.7 |
| COc1ccc(F)c(C(C)NC(=O)c2ccc(-c3cn[nH]c3)cc2OC)c1 (stereo not drawn) [Example 203, N-[1-(2-fluoro-5-methoxyphenyl)ethyl]-2-methoxy-4-(1H-pyrazol-4-yl)benzamide] | 19.2 | 6.66 |
| COc1cc(-c2cn[nH]c2)ccc1C(=O)N[C@H](CO)Cc1ccccc1 [Example 204, N-[(2S)-1-hydroxy-3-phenylpropan-2-yl]-2-methoxy-4-(1H-pyrazol-4-yl)benzamide] | 9.8 | 15.2 |
| COc1cc(-c2cn[nH]c2)ccc1C(=O)NC(CO)c1ccccc1F (stereo not drawn) [Example 205, N-[1-(2-fluorophenyl)-2-hydroxyethyl]-2-methoxy-4-(1H-pyrazol-4-yl)benzamide] | 345 | 5.62 |
| COc1cc(-c2cn[nH]c2)ccc1C(=O)N[C@H](C)c1ccc(F)cc1 [Example 206, N-[(1R)-1-(4-fluorophenyl)ethyl]-2-methoxy-4-(1H-pyrazol-4-yl) benzamide] | 7 | 2.77 |
| COc1cc(-c2cn[nH]c2)ccc1C(=O)NCc1c(F)cccc1F [Example 207, N-[(2,6-difluorophenyl)methyl]-2-methoxy-4-(1H-pyrazol-4-yl)benzamide] | 4.25 | 4.39 |
| COc1cc(-c2cn[nH]c2)ccc1C(=O)NC(CCN(C)C)c1ccccc1 (stereo not drawn) [Example 208, N-[3-(dimethylamino)-1-phenylpropyl]-2-methoxy-4-(1H-pyrazol-4-yl)benzamide] | 174 | 15.2 |
| COc1cc(-c2cn[nH]c2)ccc1C(=O)N[C@H](CCO)c1ccccc1 [Example 209, N-[(1R)-3-hydroxy-1-phenylpropyl]-2-methoxy-4-(1H-pyrazol-4-yl)benzamide] | 6.55 | 2.78 |
| COc1cc(-c2cn[nH]c2)ccc1C(=O)NCc1ccc(F)cc1Cl [Example 210, N-[(2-chloro-4-fluorophenyl)methyl]-2-methoxy-4-(1H-pyrazol-4-yl)benzamide] | 3.26 | 1.75 |
| O=C(NCc1ccccc1)c1ccc(-c2cn[nH]c2)cc1CCO [Example 211, N-benzyl-2-(2-hydroxyethyl)-4-(1H-pyrazol-4-yl) benzamide] | 1880 | 6510 |
| COc1cc(-c2cn[nH]c2)ccc1C(=O)NC(c1ccccc1F)C(C)(C)O (stereo not drawn) [Example 212, N-[1-(2-fluorophenyl)-2-hydroxy-2-methylpropyl]-2-methoxy-4-(1H-pyrazol-4-yl)benzamide] | 37.3 | 7.32 |
